Source: article PMC10094929, “Determination of Phenol with Peroxidase Immobilized on CaCO3” (International Journal of Molecular Sciences, 2023)

Tested on: T1, native peroxidase (horseradish peroxidase)
T1 construct: gene PRXC1A
Conditions: free enzyme; phenol varied; 4-aminoantipyrine 0.3 mmol/L, hydrogen peroxide 4.68 mmol/L; 0.1 M phosphate-buffered saline pH 7.2; 24 °C

**Q.** How did the Km turn out when `Oc1ccccc1` [phenol] was run?
**A.** 994 µM
